The source of these data is PMC5943252, “Contrasting roles for actin in the cellular uptake of cell penetrating peptide conjugates” (Scientific Reports, 2018).

What all share (type): cell-based
Assay [1] has as its system actin architecture in A431 cells. Description: Actin cytoskeleton visualisation (Rh-P staining, confocal microscopy). The conditions noted are these: A431 cells, Rh-P staining; for effect on actin cytoskeleton: 30 min. On the procedure:
Analysis was performed on a Leica SP5 confocal laser scanning microscope, equipped with laser lines: 405 Blue Diode (Excitation wavelength 405 nm for Hoechst 33342) Argon (Excitation wavelength 488 nm for Alexa 488 or EGFP), Helium Neon Laser 1 (Excitation wavelength 543 nm for Tetramethyl-Rhodamine Phalloidin (Rh-P)) and Laser 2 (Excitation wavelength 633 nm for Alexa 647 conjugates). All images presented in this study were obtained using a HCX PL APO 63x 1.4 NA oil immersion objective with Leica Type F immersion oil. Parameters “Gain” and “Off-set” of the individual photomultiplier tubes were adjusted between experiments in order to obtain optimal image acquisition avoiding saturation. For multi-channel image acquisition, the channels were scanned in a sequential recording mode to avoid spectral cross-talk caused by overlapping excitation and/or emission spectra of fluorophores. Acquisition mode “XYZ” and image resolutions (pixels/image) of 512 × 512 or 1024 × 1024 were selected and pinhole size was set to 1 Airy Unit. Depending on acquisition requirements the scan speed was set as either 400 or 700 Hz and for single section images, the same optical section was scanned 3x to generate a line average image. Captured images were then analysed using ImageJ. In some cases (live cell imaging) the same cells were also imaged using […] microscopy (DIC).
A recently described method was utilised giving information on actin architecture at different regions of the cells termed basal and cell body and apex (CBA). For actin staining, HeLa (0.5 × 10^6 cells/well) or A431 (1.0 × 10^6 cells/well) cells in 2.5 mL D-MEM containing 10% FBS were seeded on round borosilicate No.1.5 cover slips in 6 –well plates and allowed to adhere for 24 hr at 37 °C/5% CO2, to reach a confluence of ~80%. The cells were then treated with actin disrupters as described above, washed 3x with PBS and fixed for 15 min at room temperature with 3% PFA in PBS. Cells were then washed 3x with PBS and permeabilised with 0.2% Triton X-100 in PBS at room temperature for 5 min, washed 3x with PBS and stained for cell nuclei with 1.0 µg/ml Hoechst 33342 in PBS and for polymerised actin with 1.0 µg/ml Rh-P in PBS for 15 min at room temperature. The cells were finally washed 3x with PBS and once with distilled water, coverslips were mounted in DAKO mounting medium on glass microscope slides and imaged by confocal microscopy.

For assay [2], the system named is A431 cells. Description: Live cell confocal microscopy of uptake of endocytic probes and R8 conjugates, with or without actin inhibitors. The protocol: HeLa or A431 cells were seeded on 35 mm MatTek dishes (Ashland, US) at respective densities of 5 × 10^5 cells/dish and 1.0 × 10^6 cells/dish and maintained in 2.5 mL D-MEM containing 10%, 100 IU/mL penicillin and 100 µg/mL streptomycin. Cells were then allowed to adhere for 24 hr at 37 °C/5% CO2 to reach a confluence of ~80%. On the day of experimentation, they were washed with PBS and then incubated with 100 µl serum-free D-MEM (thus reducing well described serum binding effects[32]) containing either 2 µM CPP conjugate (R8-Alexa488 or EGFP-R8), 5 µg/ml transferrin-Alexa 647 (TF-647) or 0.1 mg/ml dextran (10 kDa)-Alexa 647 (Dex-647). The cells were then incubated for 1 hr (or 30 min for TF-647) at 37 °C/5% CO2 before washing 3x with PBS (TF-647 or Dex-647) or PBS 0.5 mg/mL heparin (R8-conjugates). They were then washed once with PBS, prior to the addition of 2 mL of imaging medium (phenol red free RPMI, 20 mM HEPES pH 7.4) and analysis by live cell confocal microscopy.
Cells were seeded on MatTek dishes as previously described and were washed with PBS before preincubation at 37 °C with diluent control (DMSO) or actin inhibitors: 10 µM Cyt D for 15 min; 0.1–1 µM Lat B for 30 min; 0.2–4 µM JAS for 45 min; 50–100 µM Y27632 for 4 hr in serum-free D-MEM at 37 °C/5% CO2. Endocytic probes (TF-647, Dex-647) or R8-conjugates were then incubated with the cells in the absence (control) or presence of the inhibitors and further incubated at 37 °C/5% CO2 for times specified in figure legends prior to analysis by confocal microscopy. For pulse chase experiments, A431 cells were incubated with 0.1 mg/ml Dex-647 for 2 hr (pulse) followed by washing and a further 4 hr (chase) in fresh complete growth medium. EGFP-R8 (2 µM) was then added for 1 hr in the absence or presence of 10 µM Cyt D. EGFP-R8 and Dex-647 subcellular distribution was then analysed in live cells using confocal microscopy. For low temperature experiments, cells were preincubated with Cyt D as above and then placed on ice for 2 min prior to addition of ice cold EGFP-R8. The cells were then maintained under these conditions for 1 hr prior to analysis by confocal microscopy.
Analysis was performed on a Leica SP5 confocal laser scanning microscope, equipped with laser lines: 405 Blue Diode (Excitation wavelength 405 nm for Hoechst 33342) Argon (Excitation wavelength 488 nm for Alexa 488 or EGFP), Helium Neon Laser 1 (Excitation wavelength 543 nm for Tetramethyl-Rhodamine Phalloidin (Rh-P)) and Laser 2 (Excitation wavelength 633 nm for Alexa 647 conjugates). All images presented in this study were obtained using a HCX PL APO 63x 1.4 NA oil immersion objective with Leica Type F immersion oil. Parameters “Gain” and “Off-set” of the individual photomultiplier tubes were adjusted between experiments in order to obtain optimal image acquisition avoiding saturation. For multi-channel image acquisition, the channels were scanned in a sequential recording mode to avoid spectral cross-talk caused by overlapping excitation and/or emission spectra of fluorophores. Acquisition mode “XYZ” and image resolutions (pixels/image) of 512 × 512 or 1024 × 1024 were selected and pinhole size was set to 1 Airy Unit. Depending on acquisition requirements the scan speed was set as either 400 or 700 Hz and for single section images, the same optical section was scanned 3x to generate a line average image. Captured images were then analysed using ImageJ. […]

Assay [3] concerns A431 cells. Description: Flow cytometry of cellular uptake of EGFP-R8 in the presence of actin inhibitors. The conditions noted are these: for Normalised Fluoresence Intensity (EGFP-R8): mean of geometric means, three independent experiments. The protocol: A431 cells were seeded onto 12-well plates and cultured for 24 hr to be ~80% confluent on the day of experiment. Cells were washed twice with PBS and then incubated with diluent control (DMSO/dH2O) or actin inhibitors as previously described. They were then loaded with serum-free DMEM containing either 2 µM EGFP-R8, 5 µg/ml TF-647 or 0.1 mg/ml Dex-647 in the presence or absence of actin inhibitors for times stipulated in the figure legends. The plates were then placed on ice to prevent further uptake and washed 3x with either ice-cold PBS or 0.5 mg/ml heparin in PBS. To remove the plasma membrane bound TF, cells were washed 3x with ice-cold PBS followed by an incubation for 1 min in ice-cold acid wash (0.2 M acetic acid, 0.2 M NaCl, pH 2.0)[33]. All cells were then washed twice with PBS at room temperature before trypsinisation at 37 °C for 5 min before placing the detached cells in centrifuge tubes and centrifuging at 4 °C for 3 min at 800 × g. The obtained cell suspension was washed 3x with ice-cold PBS and finally resuspended in 300 µl ice-cold PBS for measurement of cell-associated fluorescence (cell gate 50,000 cells) by flow cytometry on a BD FACSVerse utilising a 488 laser and 527/32 filter for EGFP analysis and a 633 nm laser and 660/10 filter for Alexa 647. Cells were gated using FSC-A/SSC-A to isolate single cell populations and analysed using FlowJo.
Flow cytometry measurements represent the mean fluorescence from three independent experiments performed in duplicate, where each individual data point was the geometric mean. A two-tailed unpaired Students t-test was used to test for differences within experiments. Significant differences were classed as having a P value of < 0.05.
For orientation: In flow cytometry, cells or beads pass a laser one at a time.

The mark [4] stands for this setting: 0.5 µM Lat B, 30 min preincubation, then 2 µM EGFP-R8 for 1 hr with Lat B.

In the case of `C/C1=C\[C@H](C)C[C@H](C)OC(=O)C[C@H](c2ccc(O)cc2)NC(=O)[C@@H](Cc2c(Br)[nH]c3ccccc23)N(C)C(=O)[C@H](C)NC(=O)[C@@H](C)C1` [JAS, Jasplakinolide], the “effect on actin organisation” value in assay [1] (0.2 µM JAS, 45 min, basal and CBA regions) is given as “actin staining was more prominent on the cell periphery”; in assay [1] (2 µM JAS, 45 min) it was “actin staining appeared in large clumps”. For the same molecule, the “effect on actin organisation (actin staining)” value in assay [1] (4 µM JAS, 45 min) was “completely lost from all cells”. Besides, the “effect on EGFP-R8 uptake” value in the assay on A431 cells [2] (2–4 µM JAS, 45 min preincubation, then 2 µM EGFP-R8 for 1 hr with JAS) was “dramatic increase”. The “Normalised Fluoresence Intensity (EGFP-R8)” value in the assay on A431 cells [3] (4 µM JAS, 45 min preincubation, then 2 µM EGFP-R8 for 1 hr with JAS) is given as 4.00. Moreover, the “fold increase in fluorescence (EGFP-R8 uptake)” value in the assay on A431 cells [3] (4 µM JAS, 45 min preincubation, then 2 µM EGFP-R8 for 1 hr with JAS, vs diluent control (0.4% v/v DMSO), P = 0.0025) is on record as “four”.

Consider `C/C1=C/C(=O)O[C@@H]2C[C@@H](CC[C@H](C)/C=C\CC1)O[C@@](O)([C@@H]1CSC(=O)N1)C2` [Lat B, Latrunculin B], for which the “effect on actin cytoskeleton” value is “formation of small actin aggregates” in assay [1] (0.1 μM Lat B, basal and CBA sections); “these aggregates were extremely prominent” in assay [1] (0.5 μM Lat B); “major disruption of the actin organisation” in assay [1] (1 μM Lat B). The “effect on cell associated EGFP-R8 fluorescence” value with A431 cells [2] (setting [4]) is listed as “much higher fluorescence compared to controls”. For the same molecule, in the assay with A431 cells [3] (0.5 µM Lat B, 30 min preincubation, then 2 µM EGFP-R8 for 1 hr with Lat B, heparin wash, vs diluent control, P = 0.0045), the “fold increase in uptake (EGFP-R8)” value came out at 6.23 fold. Further, in the assay on A431 cells [3] (setting [4]), the “Normalised Fluoresence Intensity (EGFP-R8)” value turned out to be 6.23.
